Results as given in patent publication US8604048B2, “Pyridocarbazole type compounds and applications thereof” (Centre National de la Recherche Scientifique, priority 2009, dated 2013).

Tests used:
[1] = tested on: microtubules of HeLa cells; experiment: Resistance of microtubules to nocodazole-induced depolymerization; type: cell-based, Human; conditions: 2 h with compound then 30 minutes nocodazole
Procedure: (§1) 6. a step of analysis of the effect of the compound to be tested on the dynamics of the microtubule network. For this, HeLa cells are incubated for 2 h with the compound to be tested, then optionally treated with 10 μM nocodazole for 30 minutes.
FIG. 4 represents the effect of nocodazole on the microtubules of the HeLa cells treated with the Compound 1 of the invention. The HeLa cells are incubated with paclitaxel or without, with the Compound 1 of the invention for 2 h, then exposed for 30 minutes to nocodazole. The amount of tubulin in the cells treated with the Compound 1 of the invention is measured with a microplate reader, then reported as a percentage of the amount of tubulin measured in the wells containing the cells treated with paclitaxel;
In the living cell, microtubules are dynamic structures, which oscillate between assembling and disassembling phases. Various types of tests may be carried out in order to assess the stabilizing effect of the molecules on the microtubule network. Thus, the binding of paclitaxel to the microtubules, or the binding of stabilizing proteins such as STOP proteins (Bosc et al., 2003) may protect the microtubule network from a depolymerization induced by an incubation of the cells at 4° C. […]

MES-SA DX5 cells = experiment: Cell growth test (MTT), MES-SA DX5; type: cell-based; conditions: Homo sapiens; MES-SA DX5 (multi-drug resistant, P-glycoprotein), MTT test after 48 h; read-out: IC50 (concentration necessary to inhibit 50% of cell growth)
Procedure: The cell growth tests are carried out in transparent 96-well microplates (Greiner) after having seeded 100 μl/well of a cell solution having 2·10^5 cells/ml to 5·10^5 cells/ml (depending on the cell lines). After incubating for 24 h at 37° C. with 5% CO2, the culture medium is removed and replaced with solutions of the molecule to be tested at various concentrations. The cells are incubated with these molecules for an additional 48 h at 37° C. with 5% CO2. After elimination of the medium, the cells are washed with blank RPMI (Gibco, Invitrogen) then incubated with 3-(4,5-dimethylthiazol-2-yl)-2,5-diphenyltetrazolium bromide or MTT (0.5 mg/ml final concentration) for 4 h at 37° C. with 5% CO2. MTT (Sigma Aldrich) makes it possible to estimate the viability of the cells by measuring the activity of a mitochondrial enzyme. Indeed, in living cells, mitochondrial dehydrogenases are capable of cleaving the tetrazolium ring, thus leading to the formation of formazan crystals that are insoluble in an aqueous medium. These crystals are dissolved with the addition of a solubilizing solution (isopropanol, 10% Triton X100, 0.1 N HCl). After stirring, the absorbance is measured at 570 nm using the FLUOstar OPTIMA microplate reader. […]
The viability of the cells was evaluated using an MTT test after 48 h of exposure with various concentrations of molecules (from 100 μM to 0.001 μM). […]

[2] = tested on: microtubules of HeLa cells; experiment: Stability of the microtubules in cells, qualitative double-blind evaluation using a microscope; type: cell-based, Human; conditions: general statement
Procedure: as §1
Cells grown for two days on glass coverslips, were incubated 3 minutes at 37° C. with or without OPT buffer (Pipes 80 mM, EGTA 1 mM, MgCl 1 mM, Triton X-100 0.5% and glycerol 10% pH 6.8), and then fixed in methanol previously maintained at −20° C. for 10 minutes. The cells are then washed with PBS/0.1% Tween® 20 and incubated for 15 minutes minimum at room temperature with the appropriate primary antibodies (cf. the antibodies from Table III) diluted in a solution of PBS/0.3% BSA/0.02% NaN3. The cells are then washed 3 times with PBS/0.1% Tween® 20. They are incubated for 15 minutes at room temperature with a solution of secondary antibodies (cf. the antibodies from Table IV) and of Hoechst at a final concentration of 1 μg/ml, diluted in PBS/0.3% BSA/0.02% NaN3. […]
HeLa cells are seeded in black-bottomed black 96-well microplates (Greiner 655086) by distributing 90 μl per well of a cell solution containing 40 000 cells/ml, and incubated at 37° C. with 5% CO2. […] The various fluorescence intensities are measured using the FLUOstar OPTIMA reader. […]

Cc1c2cc[nH]c(=O)c2c(C)c2c1[nH]c1ccc(OC(=O)c3ccccc3)cc12 [Compound 1, 9-benzoyloxy-5,11-dimethyl-2H,6H-pyrido[4,3-b]carbazol-1-one]
Protection of microtubules from nocodazole-induced depolymerization [1]: prevents, in a dose-dependent manner
IC50 (MES-SA DX5 cells): 27.4 µM

Cc1c2ccncc2c(C)c2c1[nH]c1ccccc12 [ellipticine]
Effect on the stabilization of cell microtubules [2]: does not have any effect
